“And” between values parts separate entries of the source, which are not always exact repeats. Identical values can stand only once. Like-named read-outs stand apart in the source and are kept apart here. Each block holds one molecule with its values, some of them ahead of it.
Legend:
[1] = molecular target: T1, CFTR (F508del/MF-HBE cells) (Homo sapiens, UniProt P13569, DEL508-508); test: Ussing chamber assay of CFTR-mediated short-circuit currents, Assay D (single concentration of 1 μM); type: cell-based; conditions: with 44 nM potentiator and 18 μM Tezacaftor, 18-24 hours, 20% human serum
T1 construct: human bronchial epithelial (HBE) cells derived from CF subjects heterozygous for F508del and a minimal function CFTR mutation (F508del/MF-HBE); endogenous in cells; host or cells: Primary human bronchial epithelial cells from CF subjects (F508del/MF genotype), differentiated at an air-liquid interface
T1 sequence (P13569 with tags, fused parts or gaps DEL508-508): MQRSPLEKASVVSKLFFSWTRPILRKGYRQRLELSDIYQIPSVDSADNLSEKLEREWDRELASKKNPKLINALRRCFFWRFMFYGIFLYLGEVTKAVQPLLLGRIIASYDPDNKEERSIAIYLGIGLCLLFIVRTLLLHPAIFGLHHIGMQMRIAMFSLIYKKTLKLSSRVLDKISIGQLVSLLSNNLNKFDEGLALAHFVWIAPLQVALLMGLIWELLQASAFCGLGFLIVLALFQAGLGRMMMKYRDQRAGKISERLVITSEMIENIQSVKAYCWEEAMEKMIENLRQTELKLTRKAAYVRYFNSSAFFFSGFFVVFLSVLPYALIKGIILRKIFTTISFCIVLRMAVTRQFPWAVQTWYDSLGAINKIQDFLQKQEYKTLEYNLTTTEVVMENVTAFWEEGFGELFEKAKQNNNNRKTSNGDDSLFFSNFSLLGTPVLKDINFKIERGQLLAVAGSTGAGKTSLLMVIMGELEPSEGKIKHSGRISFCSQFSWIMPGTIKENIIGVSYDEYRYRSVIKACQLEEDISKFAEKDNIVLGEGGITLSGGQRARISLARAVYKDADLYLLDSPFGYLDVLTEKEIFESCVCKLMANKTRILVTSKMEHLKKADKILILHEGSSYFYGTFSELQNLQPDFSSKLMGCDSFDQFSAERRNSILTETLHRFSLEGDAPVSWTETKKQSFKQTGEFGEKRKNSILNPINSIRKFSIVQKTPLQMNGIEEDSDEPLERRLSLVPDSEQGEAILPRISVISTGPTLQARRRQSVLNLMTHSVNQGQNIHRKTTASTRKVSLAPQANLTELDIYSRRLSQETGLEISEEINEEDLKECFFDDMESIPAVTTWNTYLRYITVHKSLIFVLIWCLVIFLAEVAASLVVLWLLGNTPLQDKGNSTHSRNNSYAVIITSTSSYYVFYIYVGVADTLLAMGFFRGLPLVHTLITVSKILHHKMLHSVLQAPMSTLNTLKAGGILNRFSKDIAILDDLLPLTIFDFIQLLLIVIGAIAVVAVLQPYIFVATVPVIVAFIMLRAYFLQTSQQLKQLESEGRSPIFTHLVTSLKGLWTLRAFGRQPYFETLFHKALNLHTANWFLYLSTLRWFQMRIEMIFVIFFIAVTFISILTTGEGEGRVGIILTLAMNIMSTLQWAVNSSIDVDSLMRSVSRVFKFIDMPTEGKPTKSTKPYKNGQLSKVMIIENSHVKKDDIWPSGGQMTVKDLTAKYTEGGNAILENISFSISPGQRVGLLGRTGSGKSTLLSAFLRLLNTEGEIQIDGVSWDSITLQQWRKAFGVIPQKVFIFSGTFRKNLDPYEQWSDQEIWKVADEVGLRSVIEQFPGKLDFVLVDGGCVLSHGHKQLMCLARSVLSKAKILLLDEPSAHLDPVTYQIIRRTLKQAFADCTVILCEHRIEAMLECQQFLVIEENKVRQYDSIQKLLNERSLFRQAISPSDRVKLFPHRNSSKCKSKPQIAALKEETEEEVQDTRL
How it was run: (§1)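 F508del/MF-HBE cells grown at air-liquid interface were incubated 18-24 h at 37 °C in 20% human serum with correctors plus 18 μM tezacaftor and a fixed partner compound (33 nM for concentration series, 44 nM at 1 μM). ISC was read at 0 mV after 20 μM forskolin, minus the post-inhibitor current.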

[2] = amide bond, 13-membered ring, CDMT/NMM
[3] = molecular target: T1, CFTR (F508del/MF-HBE cells); test: Ussing chamber assay of CFTR-mediated short-circuit currents, Assay C (0.026 μM to 25 μM, 6 concentrations); type: cell-based; conditions: with 33 nM potentiator and 18 μM Tezacaftor, 20% human serum; for Emax: read-out: C Max activity (%)
How it was run: as §1

- D activity at 1 μM (%) [1]: +++ (+++ is >60%)
SMILES: Cc1cccc(C)c1-c1cc2nc(n1)NS(=O)(=O)c1cccc(c1)C(=O)N(Cc1cnc3oc(C(C)C)cc3n1)[C@H](CC1CCCOC1)CO2 (single isomer, unassigned) [Compound I-66]
- ring closure, yield after HPLC ([2]; from Cc1cccc(C)c1-c1cc(OC[C@@H](CC2CCCOC2)NCc2cnc3oc(C(C)C)cc3n2)nc(NS(=O)(=O)c2cccc(C(=O)O)c2)n1, DMF, 11.8 mM, 72.5 h): 17% and 20%

- D activity at 1 μM (%) [1]: +++ (+++ is >60%)
SMILES: Cc1cccc(C)c1-c1cc2nc(n1)NS(=O)(=O)c1cccc(c1)C(=O)N(Cc1cc3ccn(C(C)C)c3cn1)[C@H](CC1(C)CC1)CO2 [III-25, (11R)-6-(2,6-Dimethylphenyl)-12-[(I-isopropylpyrrolo[2,3-c]pyridin-5-yl)methyl]-11-[(I-methylcyclopropyl)methyl]-2,2-dioxo-9-oxa-2λ^6-thia-3,5,12,19-tetrazatricyclo[12.3.1.14,8]nonadeca-1(18),4(19),5,7,14,16-hexaen-13-one]
- ring closure, yield after HPLC ([2]; from Cc1cccc(C)c1-c1cc(OC[C@@H](CC2(C)CC2)NCc2cc3ccn(C(C)C)c3cn2)nc(NS(=O)(=O)c2cccc(C(=O)O)c2)n1, DMF, 9.73 mM, 16.33 h): 50%

- D activity at 1 μM (%) [1]: +++ (+++ is >60%)
SMILES: Cc1cccc(C)c1-c1cc2nc(n1)NS(=O)(=O)c1cccc(c1)C(=O)N(Cc1cnc3oc(C(C)C)c(C(F)(F)F)c3n1)[C@H](CC1(C)CC1)CO2 [Compound I-126, (11R)-6-(2,6-dimethylphenyl)-12-[[6-isopropyl-7-(trifluoromethyl)furo[2,3-b]pyrazin-2-yl]methyl]-11-[(1-methylcyclopropyl)methyl]-2,2-dioxo-9-oxa-2λ^6-thia-3,5,12,19-tetrazatricyclo[12.3.1.14,8]nonadeca-1(18),4(19),5,7,14,16-hexaen-13-one]
- ring closure, yield after HPLC ([2]; from Cc1cccc(C)c1-c1cc(OC[C@@H](CC2(C)CC2)NCc2cnc3oc(C(C)C)c(C(F)(F)F)c3n2)nc(NS(=O)(=O)c2cccc(C(=O)O)c2)n1, DMF, 12.1 mM, 16.5 h): 36%

- D activity at 1 μM (%) [1]: +++ (+++ is >60%)
SMILES: Cc1cccc(C)c1-c1cc2nc(n1)NS(=O)(=O)c1cccc(c1)C(=O)N(Cc1ccc3oc(C4(C)CC4)cc3n1)[C@H](CC13CC(C1)C3)CO2 [Compound I-225, (11R)-11-(1-Bicyclo[1.1.1]pentanylmethyl)-6-(2,6-dimethylphenyl)-12-[[2-(1-methylcyclopropyl)furo[3,2-b]pyridin-5-yl]methyl]-2,2-dioxo-9-oxa-2λ^6-thia-3,5,12,19-tetrazatricyclo[12.3.1.14,8]nonadeca-1(18),4(19),5,7,14,16-hexaen-13-one]
- ring closure, yield after HPLC ([2]; from Cc1cccc(C)c1-c1cc(OC[C@@H](CC23CC(C2)C3)NCc2ccc3oc(C4(C)CC4)cc3n2)nc(NS(=O)(=O)c2cccc(C(=O)O)c2)n1, DMF): 61%

- D activity at 1 μM (%) [1]: +++ (+++ is >60%)
SMILES: Cc1cccc(C)c1-c1cc2nc(n1)NS(=O)(=O)c1cccc(c1)C(=O)N(Cc1cnc3oc(C(C)C)c(NC(=O)OC(C)(C)C)c3n1)[C@H](CC1(C)CC1)CO2 [Compound I-210, tert-Butyl N-[2-[[(11R)-6-(2,6-dimethylphenyl)-11-[(1-methylcyclopropyl)methyl]-2,2,13-trioxo-9-oxa-2λ^6-thia-3,5,12,19-tetrazatricyclo[12.3.1.14,8]nonadeca-1(18),4(19),5,7,14,16-hexaen-12-yl]methyl]-6-isopropyl-furo[2,3-b]pyrazin-7-yl]carbamate]
- ring closure, yield after HPLC ([2]; from Cc1cccc(C)c1-c1cc(OC[C@@H](CC2(C)CC2)NCc2cnc3oc(C(C)C)c(NC(=O)OC(C)(C)C)c3n2)nc(NS(=O)(=O)c2cccc(C(=O)O)c2)n1, DMF, 13.4 mM, 5.5 h): 55%

- D activity at 1 μM (%) [1]: +++ (+++ is >60%)
SMILES: Cc1cccc(C)c1-c1cc2nc(n1)NS(=O)(=O)c1cccc(c1)C(=O)N(Cc1cnc3nc(C(C)C)oc3n1)[C@H](CC1(C)CC1)CO2 [Compound I-159, (11R)-6-(2,6-Dimethylphenyl)-12-[(2-isopropyloxazolo[4,5-b]pyrazin-6-yl)methyl]-11-[(I-methylcyclopropyl)methyl]-2,2-dioxo-9-oxa-2λ^6-thia-3,5,12,19-tetrazatricyclo[12.3.1.14,8]nonadeca-1(18),4(19),5,7,14,16-hexaen-13-one]
- ring closure, yield after HPLC ([2]; from Cc1cccc(C)c1-c1cc(OC[C@@H](CC2(C)CC2)NCc2cnc3nc(C(C)C)oc3n2)nc(NS(=O)(=O)c2cccc(C(=O)O)c2)n1, DMF, 26.6 mM, 2.08 h): 26%

- D activity at 1 μM (%) [1]: +++ (+++ is >60%)
SMILES: Cc1cccc(C)c1-c1cc2nc(n1)NS(=O)(=O)c1cccc(c1)C(=O)N(Cc1cnc3oc(C4CC4)cc3n1)[C@H](Cc1ccccc1)CO2 [Compound I-191, (11R)-11-Benzyl-12-[(6-cyclopropylfuro[2,3-b]pyrazin-2-yl)methyl]-6-(2,6-dimethylphenyl)-2,2-dioxo-9-oxa-2λ^6-thia-3,5,12,19-tetrazatricyclo[12.3.1.14,8]nonadeca-1(18),4(19),5,7,14,16-hexaen-13-one]
- ring closure, yield after HPLC ([2]; from Cc1cccc(C)c1-c1cc(OC[C@@H](Cc2ccccc2)NCc2cnc3oc(C4CC4)cc3n2)nc(NS(=O)(=O)c2cccc(C(=O)O)c2)n1, DMSO, 2.75 h): 60%

- D activity at 1 μM (%) [1]: +++ (+++ is >60%)
SMILES: Cc1cccc(C)c1-c1cc2nc(n1)NS(=O)(=O)c1cccc(c1)C(=O)N(Cc1nc3cc(C4(C)CC4)oc3cc1F)[C@H](CC1(C)CC1)CO2 [Compound I-234, (11R)-6-(2,6-Dimethylphenyl)-12-[[6-fluoro-2-(1-methylcyclopropyl)furo[3,2-b]pyridin-5-yl]methyl]-11-[(1-methylcyclopropyl)methyl]-2,2-dioxo-9-oxa-2λ^6-thia-3,5,12,19-tetrazatricyclo[12.3.1.14,8]nonadeca-1(18),4(19),5,7,14,16-hexaen-13-one]
- ring closure, yield after HPLC ([2]; from Cc1cccc(C)c1-c1cc(OC[C@@H](CC2(C)CC2)NCc2nc3cc(C4(C)CC4)oc3cc2F)nc(NS(=O)(=O)c2cccc(C(=O)O)c2)n1, DMF, 25.0 °C): 57%

- Emax ([3]; 18-24 hours): > 60%
- EC50 [3]: 3 to 30 µM
SMILES: Cc1cccc(C)c1-c1cc2nc(n1)NS(=O)(=O)c1cccc(c1)C(=O)N(Cc1cnc3oc(C4(C)CCC4)cc3n1)[C@H](CC1(C)CC1)CO2 [Compound I-143, (11R)-6-(2,6-Dimethylphenyl)-12-[[6-(1-methylcyclobutyl)furo[2,3-b]pyrazin-2-yl]methyl]-11-[(1-methylcyclopropyl)methyl]-2,2-dioxo-9-oxa-2λ^6-thia-3,5,12,19-tetrazatricyclo[12.3.1.14,8]nonadeca-1(18),4(19),5,7,14,16-hexaen-13-one]
- ring closure, yield after HPLC ([2]; from Cc1cccc(C)c1-c1cc(OC[C@@H](CC2(C)CC2)NCc2cnc3oc(C4(C)CCC4)cc3n2)nc(NS(=O)(=O)c2cccc(C(=O)O)c2)n1, DMF, 44.8 mM, 16.0 h): 56%

- EC50 [3]: 3 to 30 µM
- Emax [3]: > 60%
SMILES: Cc1cccc(C)c1-c1cc2nc(n1)NS(=O)(=O)c1cccc(c1)C(=O)N(Cc1cnc3cc(C(C)(C)C)[nH]c3n1)[C@H](CC1(C)CC1)CO2 [IV-54, (11R)-12-[(6-tert-butyl-5H-pyrrolo[2,3-b]pyrazin-3-yl)methyl]-6-(2,6-dimethylphenyl)-11-[(1-methylcyclopropyl)methyl]-2,2-dioxo-9-oxa-2λ^6-thia-3,5,12,19-tetrazatricyclo[12.3.1.14,8]nonadeca-1(18),4(19),5,7,14,16-hexaen-13-one]
- ring closure, yield after HPLC ([2]; from Cc1cccc(C)c1-c1cc(OC[C@@H](CC2(C)CC2)NCc2cnc3cc(C(C)(C)C)[nH]c3n2)nc(NS(=O)(=O)c2cccc(C(=O)O)c2)n1, DMF, 9.99 mM, 25.0 °C, 5.5 h): 44%

- EC50 [3]: < 1 µM
- Emax [3]: > 60%
SMILES: Cc1cccc(C)c1-c1cc2nc(n1)NS(=O)(=O)c1cccc(c1)C(=O)N(Cc1cnc3cc(C(C)(C)C)n(C)c3n1)[C@H](C[C@H]1CCC(C)(C)O1)CO2 [IV-98, (11R)-12-[(6-tert-butyl-5-methyl-pyrrolo[2,3-b]pyrazin-3-yl)methyl]-6-(2,6-dimethylphenyl)-11-[[(2R)-5,5-dimethyltetrahydrofuran-2-yl]methyl]-2,2-dioxo-9-oxa-2λ^6-thia-3,5,12,19-tetrazatricyclo[12.3.1.14,8]nonadeca-1(18),4(19),5,7,14,16-hexaen-13-one]
- ring closure, yield after HPLC ([2]; from Cc1cccc(C)c1-c1cc(OC[C@@H](C[C@H]2CCC(C)(C)O2)NCc2cnc3cc(C(C)(C)C)n(C)c3n2)nc(NS(=O)(=O)c2cccc(C(=O)O)c2)n1, DMF, 22.7 mM, 25.0 °C): 58%

- Emax ([3]; 18-24 hours): > 60%
- EC50 [3]: 1 to 3 µM
SMILES: Cc1cccc(C)c1-c1cc2nc(n1)NS(=O)(=O)c1cccc(c1)C(=O)N(Cc1cnc3c(n1)C(=O)N(C(C)C)C3)[C@H](CC1(C)CC1)CO2 [III-21, (11R)-6-(2,6-Dimethylphenyl)-12-[(6-isopropyl-5-oxo-7H-pyrrolo[3,4-b]pyrazin-3-yl)methyl]-11-[(1-methylcyclopropyl)methyl]-2,2-dioxo-9-oxa-2λ^6-thia-3,5,12,19-tetrazatricyclo[12.3.1.14,8]nonadeca-1(18),4(19),5,7,14,16-hexaen-13-one]
- ring closure, yield after HPLC ([2]; from Cc1cccc(C)c1-c1cc(OC[C@@H](CC2(C)CC2)NCc2cnc3c(n2)C(=O)N(C(C)C)C3)nc(NS(=O)(=O)c2cccc(C(=O)O)c2)n1, DMF, 9.0 mM, 16.5 h): 31%
